Experimental data taken from PMC9138959 (Biomedicines, 2022).
“And” between values parts separate entries of the source, which are not always exact repeats. Equal values may be shown once. “Also recorded” adds a separate entry of the source.

Experiments:
in vitro = conditions: African green monkey
MERS-CoV = test: microbe, parasite or virus in culture; assay type: cell-based; conditions: Middle East respiratory syndrome-related coronavirus, Vero, 24 h, read-out: IC50, inhibition of MERS-CoV infection
SARS-CoV-2 RdRp = target: T1, SARS-CoV-2 RdRp (Severe acute respiratory syndrome coronavirus 2, UniProt P0DTD1); test: cell-based; conditions: HEK293T cells, 18 h treatment; read-out: IC50, SARS-CoV-2 RdRp activity (NLuc/FLuc)
T1 construct: the RdRp expression plasmid, pCI-SARS-CoV-2 nsp12-N; expressed in transfected cells; host or cells: HEK293T

SARS-CoV-2 = test: microbe, parasite or virus in culture; assay type: cell-based; conditions: Severe acute respiratory syndrome coronavirus 2, Vero, 24 h; read-out: IC50, inhibition of SARS-CoV-2 infection
SARS-CoV-2 Mpro = SARS-CoV-2 Mpro (Severe acute respiratory syndrome coronavirus 2, UniProt P0DTD1); test: SARS-CoV-2 Mpro activity inhibition assay (FRET peptide); assay type: biochemical; conditions: MBP-tagged Mpro, FRET peptide substrate, 30 min
SARS-CoV-2 PLpro = SARS-CoV-2 PLpro (Severe acute respiratory syndrome coronavirus 2, UniProt P0DTD1); test: SARS-CoV-2 PLpro activity inhibition assay; assay type: biochemical; conditions: 25 μM compound
Procedure: The fluorescence intensity was measured at 360 nm/460 nm using a Synergy H1 microplate reader (Bio-Tek). GRL061 (BPS Bioscience) was used as a positive control.
To elucidate the mode of action of PGG and PAC, the effect of those compounds on the activity of the viral protease, Mpro, was examined using SARS-CoV-2 Mpro activity assay kits.

SARS-CoV = test: microbe, parasite or virus in culture; assay type: cell-based; conditions: Severe acute respiratory syndrome coronavirus, Vero, 24 h, read-out: IC50, inhibition of SARS-CoV infection

Compound | Cytotoxicity or inhibition of host transcription (FLuc internal control levels) (HEK293T cells) | CC50 (in vitro) [µM] | IC50 (MERS-CoV) [µM] | IC50 (SARS-CoV-2 RdRp) [µM] | IC50 (SARS-CoV-2) [µM] | IC50 (SARS-CoV-2 Mpro) | Inhibition of SARS-CoV-2 PLpro activity (SARS-CoV-2 PLpro) | IC50 (SARS-CoV) [µM]
Oc1cc(O)c2c(c1)OC(c1ccc(O)c(O)c1)C(OC1(c3ccc(O)c(O)c3)Oc3cc(O)cc(O)c3C(O)C1O)C2 (centres unmarked) [PAC, proanthocyanidin] | without cytotoxicity or the inhibition of host transcription | > 50 | 4.95 ± 0.181 | 21 ± 1.2 | 25.9 ± 0.81 | 25 to 26 µM and 26 µM | did not inhibit; also recorded: did not affect | 15.2 ± 0.28
O=C(OC[C@H]1O[C@@H](OC(=O)c2cc(O)c(O)c(O)c2)[C@H](OC(=O)c2cc(O)c(O)c(O)c2)[C@@H](OC(=O)c2cc(O)c(O)c(O)c2)[C@@H]1OC(=O)c1cc(O)c(O)c(O)c1)c1cc(O)c(O)c(O)c1 [PGG, 1,2,3,4,6-penta-O-galloyl-beta-D-glucose] | without cytotoxicity or the inhibition of host transcription | > 50 | 3.47 ± 0.231 | – | 15 ± 0.75 | – | did not inhibit; also recorded: did not affect | 15.7 ± 1.02
